We go through two molecules from patent publication US12295920B2, “Composition for treatment, prevention, or amelioration of Alzheimer's disease, a composition for suppression of brain nerve cell death, a composition for suppression of microglia activation induced by amyloid β peptide, and a composition for suppression of PGE2, TNF-α, or IL-1β production induced …” (House Wellness Foods Corporation, priority 2018, dated 2025).

Assay [1] concerns human neuroblastoma SHSY5Y cells. Kind of assay: Cell death of SHSY5Y cells induced by conditioned medium of Aβ-activated macrophage cells (WST-1 assay). The format is cell-based. Particulars: macrophage cells pretreated with termeronol B 50 μM 24 h, then 25 μM Aβ 12 h; SHSY5Y 48 h in conditioned medium; vs control (Aβ+); FIG. 4. As for the experimental part:
Cells of the human monocytic cell line THP-1 were suspended in RPMI1640 (10% FBS) medium, the cells were seeded in a 96-well plate at 8.0×10^4 cells/well, 100 nM 12-O-tetradecanoylphorbol 13-acetate (PMA, differentiation-inducing factor) was added thereto, and culture was conducted in the presence of 5% CO2 for 24 hours to differentiate the cells into macrophage cells. […]
WST-1 assays comprise: adding WST-1 (2-(4-iodophenyl)-3-(4-nitrophenyl)-5-(2,4-disulfophenyl)-2H-tetrazolium, monosodium salt, Dojindo Laboratories) to each well containing cells; conducting culture in a CO2 incubator for a given period of time to generate water-soluble formazan from WST-1 with the activity of dehydrogenase in mitochondria of viable cells; and assaying the concentration of the generated formazan. […] The formazan concentration was determined based on the absorbance at 450 nm using a microplate reader (reference wavelength: 630 nm). […]
(Tetrazolium assays rely on reduction of a dye to a coloured formazan, in cell work by metabolically active cells.)

Assay [2] has as its system macrophage cells differentiated from THP-1 cells. As to the kind of experiment: Suppression of IL-1β production by macrophage cells activated by amyloid β peptide aggregate (ELISA). The format is cell-based, human. The conditions noted are these: 50 μM and 100 μM compound, 24 h pretreatment; 25 μM Aβ aggregate 24 h; FIG. 3. As for the experimental part: (§1) 1.4. Evaluation of Activity of Suppressing Activation of Macrophage Cells Induced by Amyloid β Peptide Cells of the human monocytic cell line THP-1 were suspended in RPMI1640 (10% FBS) medium, the cells were seeded in a 96-well plate at 8.0×10^4 cells/well, 100 nM 12-O-tetradecanoylphorbol 13-acetate (PMA, differentiation-inducing factor) was added thereto, and culture was conducted in the presence of 5% CO2 for 24 hours to differentiate the cells into macrophage cells. Thereafter, the medium was exchanged with another RPMI1640 (10% FBS) medium containing either the turmeric extracts (50, 100, and 200 μg/ml), termeronol A (12.5, 25, 50, or 100 μM), or termeronol B (12.5, 25, 50, or 100 μM), and culture was conducted in the presence of 5% CO2 for 24 hours to treat the cells with each specimen. Thereafter, the medium was exchanged with another RPMI1640 (2% FBS) medium containing an aggregate of 25 μM amyloid β peptides (Aβ), and culture was conducted in the presence of 5% CO2 for 24 hours to activate the cells. Thereafter, prostaglandin E2 (PGE2), the tumor necrosis factor α (TNF-α), and interleukin-1β (IL-1β) released in the medium were assayed via ELISA.

For assay [3] the test system is unchanged. As to the kind of experiment: Suppression of PGE2 production by macrophage cells activated by amyloid β peptide aggregate (ELISA). The format is cell-based, human. Particulars: 12.5 to 100 μM compound, 24 h pretreatment; 25 μM Aβ aggregate 24 h; FIG. 1. As for the experimental part:
as §1

Assay [4] shares this test system. Kind of assay: Suppression of TNF-α production by macrophage cells activated by amyloid β peptide aggregate (ELISA). The format is cell-based, human. Particulars: 50 μM and 100 μM compound, 24 h pretreatment; 25 μM Aβ aggregate 24 h; FIG. 2. The method, then:
as §1

Regarding `CC(C)=CC(=O)CC(C)c1ccc(C)cc1O` (stereo not shown) [termeronol B, Termeronol B], the “activity of the culture supernatant for inducing cell death of brain neuronal cells” value in assay [1] was “more suppressed”. The “enhancement of IL-1β production by Aβ treatment” value in assay [2] is “suppress the enhancement of IL-1β production”. Also, the “enhancement of PEG2 production by Aβ treatment” value in assay [3] was “suppress the enhancement of PEG2 production”. Besides, the “enhancement of TNF-α production by Aβ treatment” value in assay [4] is reported as “suppress the enhancement of TNF-α production”.
Turning to `CC(C)=CC(=O)CC(C)c1ccc(C)c(O)c1` (stereo not shown) [termeronol A, Termeronol A], in assay [2], the “enhancement of IL-1β production by Aβ treatment” value is “suppress the enhancement of IL-1β production”. Besides, in assay [3], the “enhancement of PEG2 production by Aβ treatment” value is recorded as “suppress the enhancement of PEG2 production”. Moreover, the “enhancement of TNF-α production by Aβ treatment” value in assay [4] is given as “suppress the enhancement of TNF-α production”.
